Consider four compounds from paper PMC9088311, “Cyclic Thiosulfonates for Thiol-Mediated Uptake: Cascade Exchangers, Transporters, Inhibitors” (JACS Au, 2022).

Each structure is given as a SMILES string. Values after ≈ are worked out from the molar mass of the structure shown. Like-named read-outs stand apart in the source and are kept apart here.

Data set [1] has as its target cathepsin B (Homo sapiens, UniProt P07858). The data set is described as follows: Cathepsin B inhibition (preliminary, not shown). Format: biochemical. As to conditions: preliminary results.
Data set [2] is described as follows: in vitro. The following applies: human.
Data set [3] has as its system trypsin. The data set is described as follows: Trypsin inhibition (preliminary, not shown). Format: biochemical. The following applies: preliminary results.
The test system of data set [4] is HK cells, transporter 28. Kind of data set: HCHT imaging: inhibition of cytosolic delivery of CTO transporter 28. Format: cell-based, Human. As to conditions: inhibitor 1 h; for IC15: read-out: MIC (concentration needed to reach 15% inhibition), transporter 28 5 μM. The protocol: (§1) Uptake inhibition was measured by the automated HCHT imaging used already to elaborate on cytosolic delivery. For inhibitor screening, HK cells in multiwell plates were incubated with increasing concentrations of inhibitors, followed by fluorescent transporters 28, 31, and 32 at a constant concentration. […] If inhibitors are removed before the addition of transporters 28, 31, and 32, the method is referred to as “pre-incubation”. This is of interest to minimize exchange between the transporter and the inhibitor but is often problematic because dynamic covalent exchange between the inhibitor and cellular target can also be reversed and thus lost. The complementary “co-incubation” operates without inhibitor removal before the addition of transporters 28, 31, and 32.
(§2) 536/40 nm emission filter, and red with 531/40 nm excitation filter and 593/40 nm emission […]
(§3) 4.3. HCHT Inhibitor Screening
(§4) Pre-Incubation Method. As in ref. S1. HeLa Kyoto cells were seeded at 8 ×10^4 cells/mL in FluoroBrite DMEM + 10% FBS on μ-Plate 96-well Black ibiTreat sterile and incubated at 37 °C with 5% CO 2 for 24 h. Then, the medium was removed and cells were washed with PBS ([…]), fresh FluoroBrite DMEM medium (4 × 150 μL/well) was added into the cells using a plate washer (Biotek EL406®), keeping a final volume of 135 μL/well. Different concentrations of the inhibitors were prepared by serial dilution with 10% final concentration DMSO (10× in PBS). The solution of compounds 4 and 33 was prepared final DMSO concentration of 10% in each dilution (10× in PBS). These inhibitor solutions (10× final concentration), transporter 28 (10× in DMEM), transporters 31 and 32 (10× in PBS) a solution of HOE (100 μg/mL) and PI (10 μg/mL) in PBS were prepared freshly in a 96-well V-bottom plate before adding to the cells. The inhibitor solutions from the V-bottom plate were added to the cells (15 μL/well) in a final volume of 150 μL/well using an electronic multichannel pipette and cells were incubated for 1 h at 37 °C with 5% CO 2. After this incubation, cells were washed again with PBS and DMEM using the plate washer (in the way mentioned above), and transporter 28 , 31 or 32 from the V-bottom plate was added (15 μL/well) to the cells in a final volume of 150 μL/well. A final concentration of each transporter 28 , 31 and 32 was 5 μM, 10 μM and 0.5 μM, respectively, except for the control wells, where only PBS was added (15 μL/well). Cells treated with transporter 28 or 31 were incubated for 30 min, and cells treated with 32 were incubated for 2 h at 37 °C with 5% CO 2. After that, the cells were washed with PBS and DMEM using the plate washer, and the solution of Hoechst 33342 and PI from the V-bottom plate was added (15 μL/well) to the cells in a final volume of 150 μL/well. After 15 min of incubation at 37 °C with 5% CO 2, the cells were washed and kept in clean FluoroBrite
(§5) DMEM. For live cell imaging, samples were kept at 37 °C with 5% CO 2 during the microscope imaging. The distribution of fluorescence stained cells was analyzed without fixing using an […]

Data set [5] has as its target cathepsin L (Homo sapiens, UniProt P07711). The data set is described as follows: Cathepsin L inhibition (preliminary, not shown). Type of data set: biochemical. As to conditions: preliminary results.
Data set [6] relates to HK cells, transporter 31. The data set is described as follows: HCHT imaging: inhibition of cytosolic delivery of ETP transporter 31. The following applies: inhibitor 1 h; for IC50 / IC15: Homo sapiens; for IC50: read-out: IC50 (concentration needed to reach 50% inhibition), transporter 31 10 μM; for IC15: read-out: MIC (concentration needed to reach 15% inhibition), transporter 31 10 μM; for MIC (concentration needed to reach 15% inhibition): transporter 31 10 μM. Format: cell-based, Human. Here is the method: as §1, §2, §3, §4, §5

Data set [7] concerns HeLa Kyoto cells. The data set is described as follows: Relative viability (HOE/PI) in HCHT screening. As to conditions: co-incubation (C). The protocol: One advantage of HCHT imaging of cellular uptake compared to flow cytometry[38],[42],[43] is that it simultaneously gives information on toxicity and intracellular localization. […] Information on the intracellular localization of reporters can be quantified through segmentation of cellular compartments stained with specific markers.[52]
as §1
Relative cell viability ( RV) for each condition in the presence of inhibitors was calculated […]
of the relative cell viability ( RVrel) to the concentration of inhibitors ( cinhibitor ) was plotted and fitted with Equation (S19) to retrieve the concentration causing 50% cell growth inhibition (RV50) value and the Hill coefficient ( n).

Data set [8] in a line: Dynamic covalent ring opening with thiol 10, 1H NMR kinetics. Type of data set: physicochemical. The following applies: pD 2.7. Here is the method:
The dynamic covalent opening of CTO 3 with thiols yields product 9 with a disulfide and a sulfinate (Figure 3B). Consistent with short chalcogen bonds found in silico, the opening of CTO 3 was instantaneous on an NMR timescale with most thiols. To decelerate ring opening, bulky thiols were considered in combination with lowered pH to deactivate the nucleophile. With N-Ac-D-penicillamine 10, the opening of 5 mM CTO 3 in phosphate buffer/DMSO-d6 9:1 was still immediate at pD 6.7 but became detectable in ^1H NMR spectroscopy kinetics under more acidic conditions. The ring-opening rate constants k^O were estimated by fitting the initial velocities to second-order kinetics. Only lower bound rates were approximated from the earliest determined substrate conversions when reactions were still too fast despite the unfavorable conditions. At pD 5.4, dynamic covalent ring opening of CTO 3 with equimolar tertiary thiol 10 occurred with k^O > 0.49 M^–1 s^–1 and equilibrated at K = 6.0 × 10^3 M^–1 (Table 1, entry 1, Figures S4 and S5). At pD 2.7, further deceleration to k^O = 0.10 M^–1 s^–1 shifted the equilibrium to K = 500 M^–1 (Table 1, entry 2, Figures S6 and S7). […] At equilibrium, the concentration of thiol 10 further decreased slowly due to oxidation into the homodimer (Figure 3C, diamonds).
Equilibrium constants for reactions with two reactants A and B and a product C are […]
3.1.1. Dynamic Covalent Ring Opening with Thiols
General procedure A (at 5 mM): To a solution of deuterated sodium phosphate (200 mM in D 2O, pD 2.7 or 5.4, 180 mM final concentration), a stock solution of substrate (0.10 M in DMSO-d6, 5.0 mM final concentration) was added and stirred. Then a stock solution of 10 (0.10 M in DMSO- d6, 5.0 mM final concentration) was added and vigorously stirred at room temperature. The solution was transferred immediately to an NMR tube and NMR data were recorded repeatedly. The concentration of the substrate or thiol at each time plot was calculated by comparing the integrals of the peaks indicated with arrows in the figures, and plotted. The data points were fitted to obtain k1 with the Equation (S6) or (S7) using Graphpad Prism.
General procedure B (at 2 mM): To a solution of deuterated sodium phosphate (200 mM in D 2O, pD 2.7 or 5.4, 180 mM final concentration), DMSO- d6 (10% DMSO- d6 in the reaction mixture) and a stock solution of substrate (0.10 M in DMSO- d6, 2.0 mM final concentration) were added and stirred. Then a stock solution of 10 (0.10 M in DMSO- d6, 2.0 mM final concentration) was added and vigorously stirred at room temperature. The solution was transferred immediately to an NMR tube and NMR data were recorded repeatedly. The concentration of the substrate or thiol at each time plot was calculated by comparing the integrals of the peaks indicated with arrows in the figures, and plotted. The data points were fitted to obtain k1 with the Equation (S6) or (S7) using Graphpad Prism.
General procedure C (for thiosulfinates): To a solution of deuterated sodium phosphate (200 mM in D 2O, pD 5.4, 170 mM final concentration), a stock solution of substrate (0.10 M in DMSO- d6, 5.0 mM final concentration) was added and stirred. Then a stock solution of 10 (0.10 M in DMSO- d6, 10 mM final concentration) was added and vigorously stirred at room […]
data points were fitted to obtain k1 with the Equation (S14) or (S16) using Graphpad Prism. […]
3.1.2. Dependence of Ring Opening on Proticity
A mixture of deuterated phosphoric acid and NaOD (30% in D 2O), which gave pD 2.7 in D2O, was used as buffer in all solvent mixtures. To a solution of deuterated sodium phosphate (20 mM final concentration) in a mixture of D 2O and DMSO- d6 (540 μL, final D 2O content: […]
concentration) was added and stirred. Then a stock solution of 10 (0.10 M in DMSO- d6, 5.0 mM final concentration) was added and vigorously stirred at room temperature. The solution was transferred immediately to an NMR tube and 1H NMR data were recorded repeatedly. […]

The subject of data set [9] is HK cells, transporter 32. Set-up: method as in PMID 34173696; key to inhibition of OPS 32 uptake (heatmap): –: −: inactive; ++: qualitative inhibition of SC2 uptake. As to conditions: cited from earlier work.
[10] abbreviates: Homo sapiens, 1 h, read-out: IC50 (concentration needed to reach 50% inhibition), transporter 28 5 μM, co-incubation (C).
Where [11] appears, read: Homo sapiens, 1 h, co-incubation (C).

Chain of cathepsin L (P07711 114-333, species assumed): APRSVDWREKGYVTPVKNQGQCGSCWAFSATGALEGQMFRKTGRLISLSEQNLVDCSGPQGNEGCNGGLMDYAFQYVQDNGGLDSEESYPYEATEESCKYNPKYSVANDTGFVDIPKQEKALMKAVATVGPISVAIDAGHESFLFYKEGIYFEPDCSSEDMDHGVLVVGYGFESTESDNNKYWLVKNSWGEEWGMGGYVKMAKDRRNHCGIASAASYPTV

In general, viability refers to a read-out of living cells in per cent, often relative to untreated cells. Turning to `O=C(N[C@H]1CCS(=O)(=O)SC1)N[C@H]1CCS(=O)(=O)SC1` [Compound 35], in [1] (50 μM), the “inhibition of cathepsin B (in words)” value was “inhibit only cathepsin B”. Moreover, the viability at 7 h, 50 µM in data set [2] worked out at 96%. For the same compound, in [3] (50 μM), the “inhibition of trypsin (in words)” value was “inhibit only cathepsin B”. Further, the IC50 turned out to be 25 µM in data set [4] (setting [10]) and 51 µM in data set [6] (1 h, co-incubation (C)). The IC15 turned out to be 3.5 µM in data set [4] (setting [11]) and 9 µM in data set [6] (1 h, co-incubation (C)). Besides, the “MIC (concentration needed to reach 15% inhibition)” value in data set [4] (transporter 28 5 μM, co-incubation (C)) turned out to be 4 µM. Moreover, the “inhibition of cathepsin L (in words)” value in [5] (50 μM) is recorded as “inhibit only cathepsin B”. Also, the “RV50 (concentration needed to lower relative viability by 50%)” value was over 50 µM in data set [7] (with transporter 28) and over 100 µM in data set [7] (with transporter 31).
Consider `CC1(C)O[C@H]2CSS(=O)(=O)C[C@H]2O1` [Compound 13], for which, in [2], the viability at 7 h, 5 µM was found to be 125 ± 5%. In [8] (equimolar 10, rt, 90% D2O, Na+ phosphate 180 mM, substrate 2 mM), the “k^O, rate constant of ring opening (or equivalent for acyclic controls)” value is given as 2.3 M^–1 s^–1. Also, the “krel^O, rate constant of ring opening relative to 3” value in data set [8] (90% D2O, 2 mM) worked out at 23. The “ring-opening rate relative to acyclic control 14 (fold)” value in [8] (with thiol 10, 2 mM) is “about 4 ×”. Also, in [6] (1 h, co-incubation (C)), the IC50 was over 10 µM and the IC15 is over 10 µM. The “RV50 (concentration needed to lower relative viability by 50%)” value in data set [7] (with transporter 31) amounted to 29 ± 6 µM.
Turning to `O=C(O)Cn1[se]c2ccccc2c1=O` [Compound 45, reference compound], in data set [2], the viability at 7 h, 50 µM is 81%. Besides, the IC15 is 1.2 µM in data set [4] (Homo sapiens, 1 h, pre-incubation (P)); 2.2 µM in data set [6] (1 h, co-incubation (C)); under 1 µM in [6] (1 h, pre-incubation (P)). In addition, the IC50 is 8 µM in data set [4] (Homo sapiens, read-out: IC50 (concentration needed to reach 50% inhibition), transporter 28 5 μM, pre-incubation (P)); 8 µM in data set [6] (1 h, co-incubation (C)); 10 µM in [6] (pre-incubation (P)); over 100 µM in data set [9] (read-out: IC50 (concentration needed to reach 50% inhibition), transporter 32 0.5 or 1 μM, pre-incubation (P)). In addition, the “MIC (concentration needed to reach 15% inhibition)” value in data set [4] (transporter 28 5 μM, pre-incubation (P)) was 1 µM (≈ 0.256 µg/mL); in data set [6] (co-incubation (C)), 2 µM; in data set [6] (pre-incubation (P)) it was under 1 µM; in [9] (transporter 32 0.5 or 1 μM, pre-incubation (P)), over 100 µM. Besides, the “inhibition of OPS 32 uptake (heatmap)” value in data set [9] (pre-incubation conditions) is listed as “–”.
For the compound `CC(C)(C)[Si](C)(C)OC1CS(=O)(=O)SCC1OC(=O)NCCCCCCNC(=O)OC1CSS(=O)(=O)CC1O[Si](C)(C)C(C)(C)C` (stereo not drawn) [Compound 4], the “inhibition of cathepsin B (in words)” value in data set [1] (10 μM) is listed as “neither cathepsin L nor B”. Moreover, the viability at 7 h, 10 µM in data set [2] worked out at 103%. In data set [3] (10 μM, not shown), this compound yielded an inhibition of trypsin of over 80%. Moreover, the IC50 is 16 ± 7 µM in [4] (setting [10]) and about 15 µM in [4] (read-out: IC50 (concentration needed to reach 50% inhibition), transporter 28 5 μM, co-incubation (C)). For the same compound, the IC15 in data set [4] (setting [11]) was 0.3 µM. Further, the “inhibition of cathepsin L (in words)” value in data set [5] (10 μM) is reported as “neither cathepsin L nor B”. For the same compound, the “RV50 (concentration needed to lower relative viability by 50%)” value in [7] (with transporter 28) is over 5 µM.
